Legend:
Format in all cases: in vivo
Cyperus difformis = assay: Test Example 3: herbicidal effect by foliage application, Wagner pot (symbol E); conditions: application herbicide amount 320 g/ha; for E herbicidal effect grade: Table 24
How it was run: (§1)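 Plants sown in submerged alluvial soil (water depth 0.1–0.5 cm) in a 25–30 °C greenhouse and grown 14 days. An emulsion of the compound diluted in water to a set herbicide amount was sprayed uniformly on foliage. Effect on each plant scored 3 weeks after application.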

Leptochloa chinensis = assay: Test Example 3: herbicidal effect by foliage application, Wagner pot (symbol D); conditions: application herbicide amount 320 g/ha; for D (Leptochloa chinensis) herbicidal effect grade: Table 24
How it was run: as §1

soybean [1] = assay: Test Example 4: effect on crop by soil treatment (symbol d); conditions: for d: soybean, effect grade on crop: 320 g/ha; for Effect on crop grade, d: soybean: application herbicide amount 320 g/ha
How it was run: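 Greenhouse culture at 25° C. to 30° C. followed sowing of seed in spots on sterilized diluvial soil with a soil cover close to 1.5 cm thick.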

Setaria viridis = assay: Test Example 5: herbicidal effect by foliage application, plastic box (symbol G); conditions: 320 g/ha, 3 weeks after application
How it was run: (§2)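 After sowing into sterilized diluvial soil and growing two weeks under glass at 25° C. to 30° C., seedlings receive a uniform foliar spray of diluted emulsion. Damage is judged visually three weeks on.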

Apera spica-venti [2] = assay: Test Example 4: herbicidal effect by soil treatment (symbol L); conditions: for L: Apera spica-venti, herbicidal effect grade: 320 g/ha; for Herbicidal effect grade, L: Apera spica-venti: application herbicide amount 320 g/ha
How it was run: (§3)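 Seeds were sown in sterilized diluvial soil, covered with about 1.5 cm of soil, and the soil surface was sprayed with a water-diluted emulsion of the compound at a predetermined rate. Plants grew in a greenhouse at 25° C. to 30° C.; effects were scored visually 3 weeks after application.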

Amaranthus retroflexus = assay: Test Example 4: herbicidal effect by soil treatment (symbol N); conditions: for N: Amaranthus retroflexus, herbicidal effect grade: 320 g/ha; for Herbicidal effect grade, N: Amaranthus retroflexus: application herbicide amount 320 g/ha
How it was run: as §3

Apera spica-venti [3] = assay: Test Example 5: herbicidal effect by foliage application, plastic box (symbol L); conditions: 320 g/ha, 3 weeks after application
How it was run: as §2

transplanted rice plant = assay: Test Example 1: effect on crop, application before weed generation in submerged conditions (symbol a); conditions: application herbicide amount 320 g/ha
How it was run: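 Alluvial soil pots flooded to 4 cm water, sown with Echinochloa oryzacola, Scirpus juncoides and Monochoria vaginalis, then transplanted with 2.5 leaf stage rice seedlings; pre-emergence application. Greenhouse 25° C. to 30° C.; scored 0–5 by herbicidal ratio 3 weeks after application.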

soybean [4] = assay: Test Example 5: effect on crop by foliage application, plastic box (symbol d); conditions: 320 g/ha, 3 weeks after application
How it was run: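 Crop and weed seeds sown in spots in sterilized diluvial soil in plastic boxes and covered with about 1.5 cm soil. Plants raised in a greenhouse at 25° C. to 30° C. for foliar application.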

Alopecurus myosuroides = assay: Test Example 4: herbicidal effect by soil treatment (symbol J); conditions: for J: Alopecurus myosuroides, herbicidal effect grade: 320 g/ha; for Herbicidal effect grade, J: Alopecurus myosuroides: application herbicide amount 320 g/ha
How it was run: as §3

[5] = tested on: Echinochloa crus-galli var. crus-galli; assay: Test Example 5: herbicidal effect by foliage application, plastic box (symbol H); conditions: 320 g/ha, 3 weeks after application
How it was run: as §2

Veronica persica = assay: Test Example 4: herbicidal effect by soil treatment (symbol R); conditions: for R: Veronica persica, herbicidal effect grade: 320 g/ha; for Herbicidal effect grade, R: Veronica persica: application herbicide amount 320 g/ha
How it was run: as §3

Abutilon theophrasti = assay: Test Example 5: herbicidal effect by foliage application, plastic box (symbol M); conditions: 320 g/ha, 3 weeks after application
How it was run: as §2

Stellaria media = assay: Test Example 4: herbicidal effect by soil treatment (symbol P); conditions: for P: Stellaria media, herbicidal effect grade: 320 g/ha; for Herbicidal effect grade, P: Stellaria media: application herbicide amount 320 g/ha
How it was run: as §3

[6] = tested on: Echinochloa crus-galli var. crus-galli; assay: Test Example 3: herbicidal effect by foliage application, Wagner pot (symbol H); conditions: application herbicide amount 320 g/ha; for H (Echinochloa crus-galli var. crus-galli) herbicidal effect grade: Table 24
How it was run: as §1

Compound: CC(CC1CC(O)=C(c2c(C)cc(C)cc2C)C1=O)=NOCC1CC1(F)F (stereo not drawn) [1-109]
- herbicidal effect on E, grade 0-5 (Cyperus difformis): 5 (Herbicidal ratio of 90% or more (almost completely withered))
- herbicidal effect on D (Leptochloa chinensis), grade 0-5 (Leptochloa chinensis): 5 (Herbicidal ratio of 90% or more (almost completely withered))
- d: soybean, effect grade on crop (soybean [1]): 0 (Herbicidal ratio of 5% or lower (almost no effect))
- G: Setaria viridis, herbicidal effect (criteria 0-5) (Setaria viridis): 5 (Herbicidal ratio of 90% or more (almost completely withered))
- L: Apera spica-venti, herbicidal effect grade (Apera spica-venti [2]): 5 (Herbicidal ratio of 90% or more (almost completely withered))
- N: Amaranthus retroflexus, herbicidal effect grade (Amaranthus retroflexus): 3 (Herbicidal ratio of 40% or higher and lower than 70%)
- L: Apera spica-venti, herbicidal effect (criteria 0-5) (Apera spica-venti [3]): 5 (Herbicidal ratio of 90% or more (almost completely withered))
- Effect grade on crop, a: transplanted rice plant (transplanted rice plant): 5 (Herbicidal ratio of 90% or more (almost completely withered))
- d: soybean, effect on crop (criteria 0-5) (soybean [4]): 0 (Herbicidal ratio of 5% or lower (almost no effect))
- J: Alopecurus myosuroides, herbicidal effect grade (Alopecurus myosuroides): 5 (Herbicidal ratio of 90% or more (almost completely withered))
- H: Echinochloa crus-galli var. crus-galli, herbicidal effect (criteria 0-5) [5]: 5 (Herbicidal ratio of 90% or more (almost completely withered))
- R: Veronica persica, herbicidal effect grade (Veronica persica): 2 (Herbicidal ratio of 20% or higher and lower than 40%)
- M: Abutilon theophrasti, herbicidal effect (criteria 0-5) (Abutilon theophrasti): 3 (Herbicidal ratio of 40% or higher and lower than 70%)
- P: Stellaria media, herbicidal effect grade (Stellaria media): 0 (Herbicidal ratio of 5% or lower (almost no effect))
- herbicidal effect on H (Echinochloa crus-galli var. crus-galli), grade 0-5 [6]: 5 (Herbicidal ratio of 90% or more (almost completely withered))

Compound: CC(CC1CC(OC(=O)COc2ccccc2)=C(c2c(C)cc(-n3cc(Cl)cn3)cc2C)C1=O)=NOCC(F)(F)F (stereo not drawn) [9-012]
- E herbicidal effect grade (Cyperus difformis): 5 (Herbicidal ratio of 90% or more (almost completely withered))
- D (Leptochloa chinensis) herbicidal effect grade (Leptochloa chinensis): 5 (Herbicidal ratio of 90% or more (almost completely withered))
- Effect on crop grade, d: soybean (soybean [1]): 0 (Herbicidal ratio of 5% or lower (almost no effect))
- G: Setaria viridis, herbicidal effect grade (Setaria viridis): 5 (Herbicidal ratio of 90% or more (almost completely withered))
- Herbicidal effect grade, L: Apera spica-venti (Apera spica-venti [2]): 5 (Herbicidal ratio of 90% or more (almost completely withered))
- Herbicidal effect grade, N: Amaranthus retroflexus (Amaranthus retroflexus): 0 (Herbicidal ratio of 5% or lower (almost no effect))
- L: Apera spica-venti, herbicidal effect grade (Apera spica-venti [3]): 5 (Herbicidal ratio of 90% or more (almost completely withered))
- a (transplanted rice plant) effect on crop grade (transplanted rice plant): 5 (Herbicidal ratio of 90% or more (almost completely withered))
- d: soybean, effect on crop grade (soybean [4]): 1 (Herbicidal ratio of 5% or higher and lower than 20%)
- Herbicidal effect grade, J: Alopecurus myosuroides (Alopecurus myosuroides): 5 (Herbicidal ratio of 90% or more (almost completely withered))
- H: Echinochloa crus-galli var. crus-galli, herbicidal effect grade [5]: 5 (Herbicidal ratio of 90% or more (almost completely withered))
- Herbicidal effect grade, R: Veronica persica (Veronica persica): 2 (Herbicidal ratio of 20% or higher and lower than 40%)
- M: Abutilon theophrasti, herbicidal effect grade (Abutilon theophrasti): 1 (Herbicidal ratio of 5% or higher and lower than 20%)
- Herbicidal effect grade, P: Stellaria media (Stellaria media): 0 (Herbicidal ratio of 5% or lower (almost no effect))
- H (Echinochloa crus-galli var. crus-galli) herbicidal effect grade [6]: 5 (Herbicidal ratio of 90% or more (almost completely withered))

Compound: CON=C(C)CC1CC(OC(=O)C#C[Si](C)(C)C)=C(c2c(C)cc(C)cc2C)C1=O (stereo not drawn) [1-096]
- herbicidal effect on E, grade 0-5 (Cyperus difformis): 5 (Herbicidal ratio of 90% or more (almost completely withered))
- herbicidal effect on D (Leptochloa chinensis), grade 0-5 (Leptochloa chinensis): 5 (Herbicidal ratio of 90% or more (almost completely withered))
- d: soybean, effect grade on crop (soybean [1]): 1 (Herbicidal ratio of 5% or higher and lower than 20%)
- G: Setaria viridis, herbicidal effect (criteria 0-5) (Setaria viridis): 5 (Herbicidal ratio of 90% or more (almost completely withered))
- L: Apera spica-venti, herbicidal effect grade (Apera spica-venti [2]): 5 (Herbicidal ratio of 90% or more (almost completely withered))
- N: Amaranthus retroflexus, herbicidal effect grade (Amaranthus retroflexus): 4 (Herbicidal ratio of 70% or higher and lower than 90%)
- L: Apera spica-venti, herbicidal effect (criteria 0-5) (Apera spica-venti [3]): 5 (Herbicidal ratio of 90% or more (almost completely withered))
- Effect grade on crop, a: transplanted rice plant (transplanted rice plant): 5 (Herbicidal ratio of 90% or more (almost completely withered))
- d: soybean, effect on crop (criteria 0-5) (soybean [4]): 3 (Herbicidal ratio of 40% or higher and lower than 70%)
- J: Alopecurus myosuroides, herbicidal effect grade (Alopecurus myosuroides): 5 (Herbicidal ratio of 90% or more (almost completely withered))
- H: Echinochloa crus-galli var. crus-galli, herbicidal effect (criteria 0-5) [5]: 5 (Herbicidal ratio of 90% or more (almost completely withered))
- R: Veronica persica, herbicidal effect grade (Veronica persica): 0 (Herbicidal ratio of 5% or lower (almost no effect))
- M: Abutilon theophrasti, herbicidal effect (criteria 0-5) (Abutilon theophrasti): 4 (Herbicidal ratio of 70% or higher and lower than 90%)
- P: Stellaria media, herbicidal effect grade (Stellaria media): 0 (Herbicidal ratio of 5% or lower (almost no effect))
- herbicidal effect on H (Echinochloa crus-galli var. crus-galli), grade 0-5 [6]: 5 (Herbicidal ratio of 90% or more (almost completely withered))

Compound: COC(=O)c1ccc(CON=C(C)CC2CC(O)=C(c3c(C)cc(C)cc3C)C2=O)cc1 (stereo not drawn) [1-118]
- herbicidal effect on E, grade 0-5 (Cyperus difformis): 0 (Herbicidal ratio of 5% or lower (almost no effect))
- herbicidal effect on D (Leptochloa chinensis), grade 0-5 (Leptochloa chinensis): 0 (Herbicidal ratio of 5% or lower (almost no effect))
- d: soybean, effect grade on crop (soybean [1]): 0 (Herbicidal ratio of 5% or lower (almost no effect))
- G: Setaria viridis, herbicidal effect (criteria 0-5) (Setaria viridis): 0 (Herbicidal ratio of 5% or lower (almost no effect))
- L: Apera spica-venti, herbicidal effect grade (Apera spica-venti [2]): 3 (Herbicidal ratio of 40% or higher and lower than 70%)
- N: Amaranthus retroflexus, herbicidal effect grade (Amaranthus retroflexus): 0 (Herbicidal ratio of 5% or lower (almost no effect))
- L: Apera spica-venti, herbicidal effect (criteria 0-5) (Apera spica-venti [3]): 3 (Herbicidal ratio of 40% or higher and lower than 70%)
- Effect grade on crop, a: transplanted rice plant (transplanted rice plant): 4 (Herbicidal ratio of 70% or higher and lower than 90%)
- d: soybean, effect on crop (criteria 0-5) (soybean [4]): 0 (Herbicidal ratio of 5% or lower (almost no effect))
- J: Alopecurus myosuroides, herbicidal effect grade (Alopecurus myosuroides): 3 (Herbicidal ratio of 40% or higher and lower than 70%)
- H: Echinochloa crus-galli var. crus-galli, herbicidal effect (criteria 0-5) [5]: 2 (Herbicidal ratio of 20% or higher and lower than 40%)
- R: Veronica persica, herbicidal effect grade (Veronica persica): 0 (Herbicidal ratio of 5% or lower (almost no effect))
- M: Abutilon theophrasti, herbicidal effect (criteria 0-5) (Abutilon theophrasti): 0 (Herbicidal ratio of 5% or lower (almost no effect))
- P: Stellaria media, herbicidal effect grade (Stellaria media): 0 (Herbicidal ratio of 5% or lower (almost no effect))
- herbicidal effect on H (Echinochloa crus-galli var. crus-galli), grade 0-5 [6]: 4 (Herbicidal ratio of 70% or higher and lower than 90%)

Compound: CC(CC1CC(O)=C(c2c(C)cc(-n3cc(Cl)cn3)cc2C)C1=O)=NOCC(F)(F)F (stereo not drawn) [9-010]
- E herbicidal effect grade (Cyperus difformis): 5 (Herbicidal ratio of 90% or more (almost completely withered))
- D (Leptochloa chinensis) herbicidal effect grade (Leptochloa chinensis): 5 (Herbicidal ratio of 90% or more (almost completely withered))
- Effect on crop grade, d: soybean (soybean [1]): 0 (Herbicidal ratio of 5% or lower (almost no effect))
- G: Setaria viridis, herbicidal effect grade (Setaria viridis): 5 (Herbicidal ratio of 90% or more (almost completely withered))
- Herbicidal effect grade, L: Apera spica-venti (Apera spica-venti [2]): 5 (Herbicidal ratio of 90% or more (almost completely withered))
- Herbicidal effect grade, N: Amaranthus retroflexus (Amaranthus retroflexus): 0 (Herbicidal ratio of 5% or lower (almost no effect))
- L: Apera spica-venti, herbicidal effect grade (Apera spica-venti [3]): 5 (Herbicidal ratio of 90% or more (almost completely withered))
- a (transplanted rice plant) effect on crop grade (transplanted rice plant): 5 (Herbicidal ratio of 90% or more (almost completely withered))
- d: soybean, effect on crop grade (soybean [4]): 2 (Herbicidal ratio of 20% or higher and lower than 40%)
- Herbicidal effect grade, J: Alopecurus myosuroides (Alopecurus myosuroides): 5 (Herbicidal ratio of 90% or more (almost completely withered))
- H: Echinochloa crus-galli var. crus-galli, herbicidal effect grade [5]: 5 (Herbicidal ratio of 90% or more (almost completely withered))
- Herbicidal effect grade, R: Veronica persica (Veronica persica): 0 (Herbicidal ratio of 5% or lower (almost no effect))
- M: Abutilon theophrasti, herbicidal effect grade (Abutilon theophrasti): 0 (Herbicidal ratio of 5% or lower (almost no effect))
- Herbicidal effect grade, P: Stellaria media (Stellaria media): 0 (Herbicidal ratio of 5% or lower (almost no effect))
- H (Echinochloa crus-galli var. crus-galli) herbicidal effect grade [6]: 5 (Herbicidal ratio of 90% or more (almost completely withered))

— patent US11000033B2, “Ketone or oxime compound, and herbicide” (NISSAN CHEMICAL CORPORATION, priority 2014, dated 2021)
